Data on ten compounds can be found in patent US20020076412A1, “METHODS FOR MODULATING THE IMMUNE SYSTEM” (priority 1987, published 2002).

Several values for one entry are separate records, joined by “and”; a condition that tells them apart may be missing. Equal values may be shown once. Entries after “also recorded” stand apart in the source; their conditions may differ. A value given as a limit tells only on which side of the number the result lay.

Broadly, the IC50 is the midpoint of a concentration-inhibition curve.

One experiment concerns EAE (RAT). Description: Ability of peptide mixed in CFA to cause EAE. The class given is in vivo. As to conditions: rats with EAE / rats immunized with the peptide alone in CFA. How it is done: The peptides were tested for their ability to cause EAE when mixed in CFA. […] It was seen that Ala4, Ala6, Ala7, and Ala8 are poor binders to I-E, implying that these residues 4F,6N,7I, and 8V are critical in MHC binding. […] Despite their inability to bind well to I-E, peptides ala6 and ala8 block the development of EAE when mixed with native peptide in a 5:1 molar ratio with CFA (0/6 sick with native plus ala6, 2/6 with native plus ala8, compared to 11/12 with native peptide alone). These competitor peptides Ala6 and Ala8, though poor I-E binders can apparently compete with native peptide and antagonize the T-cell receptor.

A further experiment deals with 87-99 T-cell line. Put plainly: Proliferation of encephalitogenic T-cell line raised against native peptide (87-99). Type of experiment: cell-based, rat. As to conditions: stimulation of T-cell line raised against native 87-99, grades negative to 4+, no key printed. On the procedure:
As noted above, candidate peptide analogues are first tested for their property of causing or inhibiting proliferation of T-cell lines. In the proliferation assay, MBP reactive T-cell lines may be used as target cells. T-cell lines are established from lymph nodes taken from rats injected with MBP. Lymph node cells are isolated and cultured for 5 to 8 days with MBP and IL-2 as a source of T-cell growth factors. Viable cells are recovered and a second round of stimulation is performed with MBP and irradiated splenocytes as a source of growth factors. After 5 to 6 passages in this manner, the proliferative potential of the cell lines are determined. MBP-reactive lines are used in the proliferation assay. In this assay, T-cell lines are cultured for three days with various concentrations of peptide analogues and irradiated, autologous splenocytes. After three days, 0.5-1.0 μCi of [^3H]-thymidine is added for 12-16 hours. Cultures are harvested and incorporated counts determined. Mean CPM and standard error of the mean are calculated from triplicate cultures.
Development of MBP-specific T-cell lines in the rat: T-cell lines are selected from LN or SC (spinal cords) of rats immunized with guinea pig myelin basic protein or with MBP peptide (200 μg) in CFA. Supernatants from ConA-stimulated Lewis rat splenocytes are used as the source of IL-2 to expand Ag-stimulated T-cells.
Proliferation Assay: Proliferative responses were determined as described previously (Zamvil, et al., Nature 317:355, 1985). 1×10^4 T-cells were cultured with 5×10^5 X-irradiated (3,000 rad) PL/J splenic APC in 0.2 ml of culture media in 96 well flat-bottomed microtiter plates (Falcon, 3072). Peptides were added to culture giving the final concentrations indicated. At 48 hours incubation, each well was pulsed with 1 μCi ^3H-thymidine and harvested 16 hours later. The mean c.p.m. thymidine incorporation was calculated for triplicate cultures. Standard deviations from replicate cultures were within 10% mean value. Proliferation assays were performed in 96-well microtiter plates. Briefly, 2×10^4 T-cells and 10^6 irradiated thymocytes/well were incubated with stimulation medium only, Con A, or antigen. The cultures were harvested onto glass fiber filters and TdR uptake was assessed by liquid scintillation. Mean cpm were calculated from triplicate wells. In some experiments, competitor peptides, or anti I-A (OX-6) or anti-I-E antibodies (OX-17) were used to evaluate which MHC molecules were used to restrict the T-cell response, or to determine whether peptides could antagonize stimulation by the native peptide.

Another experiment relates to EAE. Put plainly: Competition with Ala6 and Ala5 for prevention of EAE with MBP (Table 3). Type of experiment: in vivo, mice. How it is done:
Incidence of EAE was expressed as number of mice with clinical EAE/number of mice immunized. For the induction of EAE, MBP peptide was dissolved in phosphate buffered saline (PBS) and emulsified with complete Freund's adjuvant (CFA) in a 1:1 mixture of PBS and CFA. Mice were injected with 0.2 ml emulsion at the base of the tail. On the same day and 48 h later, pertussis toxin (List Chemicals, Campbell, Calif.) was injected intravenously. Mice were examined daily for signs of EAE. For prevention of EAE, animals were immunized with MBP (0.2 mg), or in a mixture with the competitor peptide (1 mg).

The next experiment concerns the target I-E. Description: MHC I-E binding of substituted MBP 87-99 peptides. As to conditions: for IC50: read-out: (M*C) IC50 I-E Binding. Further details: species or system rat. From the text: A set of substituted peptides based on the sequence VHFFKNIVTPRT (Seq. ID No. 39), which is identical in rats, mice and human myelin basic protein (MBP), and corresponds to the I-E restricted epitope MBP 87-99 in the rat was produced. The peptides are shown in Table 1 (Seq. ID Nos. 39 to 52 respectively) MHC binding was measure say described in Smilek et al, 1991, Gautam et al 1992a&b.

Regarding `CC[C@H](C)[C@H](NC(=O)[C@H](CC(N)=O)NC(=O)[C@H](CCCCN)NC(=O)[C@H](Cc1ccccc1)NC(=O)[C@H](Cc1ccccc1)NC(=O)[C@H](C)NC(=O)[C@@H](N)C(C)C)C(=O)N[C@H](C(=O)N[C@H](C(=O)N1CCC[C@H]1C(=O)N[C@@H](CCCNC(=N)N)C(=O)N[C@H](C(=O)N1CCC[C@H]1C(=O)O)[C@@H](C)O)[C@@H](C)O)C(C)C` [Ala 2], the “EAE (RAT)” value with EAE (RAT) was 6/6.

Turning to `CC[C@H](C)[C@H](NC(=O)[C@H](CC(N)=O)NC(=O)[C@H](C)NC(=O)[C@H](Cc1ccccc1)NC(=O)[C@H](Cc1ccccc1)NC(=O)[C@H](Cc1c[nH]cn1)NC(=O)[C@@H](N)C(C)C)C(=O)N[C@H](C(=O)N[C@H](C(=O)N1CCC[C@H]1C(=O)N[C@@H](CCCNC(=N)N)C(=O)N[C@H](C(=O)N1CCC[C@H]1C(=O)O)[C@@H](C)O)[C@@H](C)O)C(C)C` [Ala 5], the “EAE (RAT)” value in the experiment on EAE (RAT) is on record as 0/6; in the experiment on EAE (RAT) (listed as Ala5), “incapable of causing EAE”. The Prolif. entry in the experiment with 87-99 T-cell line was “negative”. Moreover, the “Incidence of EAE” value is reported as “had a preventative effect on EAE” in the experiment on EAE (native MBP peptide 0.2 mg mixed with competitor peptide 1 mg); 2/6 in the experiment with EAE (native MBP peptide 0.2 mg mixed with competitor peptide 1 mg, listed as ala 5); 0/6 with EAE (peptide alone 0.2 mg in CFA, number with clinical EAE/number immunized).

`CC[C@H](C)[C@H](NC(=O)[C@H](CC(N)=O)NC(=O)[C@H](CCCCN)NC(=O)[C@H](Cc1ccccc1)NC(=O)[C@H](Cc1ccccc1)NC(=O)[C@H](Cc1c[nH]cn1)NC(=O)[C@@H](N)C(C)C)C(=O)N[C@H](C(=O)N[C@H](C(=O)N1CCC[C@H]1C(=O)N[C@@H](C)C(=O)N[C@H](C(=O)N1CCC[C@H]1C(=O)O)[C@@H](C)O)[C@@H](C)O)C(C)C` [Ala 11]: the “EAE (RAT)” value with EAE (RAT) is recorded as 4/6. Besides, at I-E, the IC50 is 20 µM. Also, the Prolif. entry with 87-99 T-cell line is given as “negative”.

As to `CC[C@H](C)[C@H](NC(=O)[C@H](CC(N)=O)NC(=O)[C@H](CCCCN)NC(=O)[C@H](Cc1ccccc1)NC(=O)[C@H](Cc1ccccc1)NC(=O)[C@H](Cc1c[nH]cn1)NC(=O)[C@@H](N)C(C)C)C(=O)N[C@H](C(=O)N[C@H](C(=O)N1CCC[C@H]1C(=O)N[C@@H](CCCNC(=N)N)C(=O)N[C@@H](C)C(=O)N1CCC[C@H]1C(=O)O)[C@@H](C)O)C(C)C` [Ala 12], the “EAE (RAT)” value in the experiment on EAE (RAT) was 6/6.

Consider `CC[C@H](C)[C@H](NC(=O)[C@H](CC(N)=O)NC(=O)[C@H](CCCCN)NC(=O)[C@H](Cc1ccccc1)NC(=O)[C@H](Cc1ccccc1)NC(=O)[C@H](Cc1c[nH]cn1)NC(=O)[C@@H](N)C(C)C)C(=O)N[C@H](C(=O)N[C@H](C(=O)N[C@@H](C)C(=O)N[C@@H](CCCNC(=N)N)C(=O)N[C@H](C(=O)N1CCC[C@H]1C(=O)O)[C@@H](C)O)[C@@H](C)O)C(C)C` [Ala 10], for which, in the experiment with EAE (RAT), the “EAE (RAT)” value is “incapable of causing EAE and nonencephalitogenic and 0/6”.

As to `CC[C@H](C)[C@H](NC(=O)[C@H](CC(N)=O)NC(=O)[C@H](CCCCN)NC(=O)[C@H](Cc1ccccc1)NC(=O)[C@H](Cc1ccccc1)NC(=O)[C@H](Cc1c[nH]cn1)NC(=O)[C@@H](N)C(C)C)C(=O)N[C@H](C(=O)N[C@@H](C)C(=O)N1CCC[C@H]1C(=O)N[C@@H](CCCNC(=N)N)C(=O)N[C@H](C(=O)N1CCC[C@H]1C(=O)O)[C@@H](C)O)C(C)C` [Ala 9], the “EAE (RAT)” value with EAE (RAT) is 1/6; in the experiment with EAE (RAT) (listed as Ala9), 1/6 and nonencephalitogenic. Further, the results for the Prolif. result in the experiment on 87-99 T-cell line and in the experiment on 87-99 T-cell line (listed as Ala9) were “negative” and “weak stimulators”, respectively.

Consider `CC[C@H](C)[C@H](NC(=O)[C@H](CC(N)=O)NC(=O)[C@H](CCCCN)NC(=O)[C@H](C)NC(=O)[C@H](Cc1ccccc1)NC(=O)[C@H](Cc1c[nH]cn1)NC(=O)[C@@H](N)C(C)C)C(=O)N[C@H](C(=O)N[C@H](C(=O)N1CCC[C@H]1C(=O)N[C@@H](CCCNC(=N)N)C(=O)N[C@H](C(=O)N1CCC[C@H]1C(=O)O)[C@@H](C)O)[C@@H](C)O)C(C)C` [Ala 4], for which the entries for the “EAE (RAT)” value in the experiment with EAE (RAT) and in the experiment on EAE (RAT) (listed as Ala4) were 0/6 and “incapable of causing EAE; also recorded: does not cause EAE”, respectively. Besides, in the experiment on I-E, the “binding to I-E / MHC (in words)” value is “poor binders”. Further, the IC50 on I-E was more than 200 µM. Besides, the results for the Prolif. entry with 87-99 T-cell line and with 87-99 T-cell line (listed as Ala4) were “negative” and “does not stimulate”, respectively.

Take `CC[C@H](C)[C@H](NC(=O)[C@H](CC(N)=O)NC(=O)[C@H](CCCCN)NC(=O)[C@H](Cc1ccccc1)NC(=O)[C@H](C)NC(=O)[C@H](Cc1c[nH]cn1)NC(=O)[C@@H](N)C(C)C)C(=O)N[C@H](C(=O)N[C@H](C(=O)N1CCC[C@H]1C(=O)N[C@@H](CCCNC(=N)N)C(=O)N[C@H](C(=O)N1CCC[C@H]1C(=O)O)[C@@H](C)O)[C@@H](C)O)C(C)C` [Ala 3]: the “EAE (RAT)” value in the experiment with EAE (RAT) is 6/6.

On to `CC[C@H](C)[C@H](NC(=O)[C@H](CC(N)=O)NC(=O)[C@H](CCCCN)NC(=O)[C@H](Cc1ccccc1)NC(=O)[C@H](Cc1ccccc1)NC(=O)[C@H](Cc1c[nH]cn1)NC(=O)[C@@H](N)C(C)C)C(=O)N[C@H](C(=O)N[C@H](C(=O)N1CCC[C@H]1C(=O)N[C@@H](CCCNC(=N)N)C(=O)N[C@H](C(=O)N[C@@H](C)C(=O)O)[C@@H](C)O)[C@@H](C)O)C(C)C` [Ala 13], for which the “EAE (RAT)” value in the experiment on EAE (RAT) was 3/6. Also, the IC50 on I-E turned out to be 10 µM.

In the case of `CC[C@H](C)[C@H](NC(=O)[C@H](CC(N)=O)NC(=O)[C@H](CCCCN)NC(=O)[C@H](Cc1ccccc1)NC(=O)[C@H](Cc1ccccc1)NC(=O)[C@H](Cc1c[nH]cn1)NC(=O)[C@H](C)N)C(=O)N[C@H](C(=O)N[C@H](C(=O)N1CCC[C@H]1C(=O)N[C@@H](CCCNC(=N)N)C(=O)N[C@H](C(=O)N1CCC[C@H]1C(=O)O)[C@@H](C)O)[C@@H](C)O)C(C)C` [Ala 1], in the experiment on EAE (RAT), the “EAE (RAT)” value is reported as 6/6.
